Here are results for 2 molecules from patent US4737504A, “5-fluoro-and 8-fluoro-trimetoquinol compounds and the processes for their preparation” (priority 1986, dated 1988).

The test system of data set [1] is human platelets (U46619-induced aggregation). Kind of data set: inhibition of U46619-induced platelet aggregation in presence of aspirin, human platelet-rich plasma. Type of data set: cell-based. The settings on record: U46619 0.5-1.5 μM, aspirin 1 mM. As to the method: (§1) The antiaggregatory and antisecretory activity on human platelets was determined by evaluating the in vitro aggregation and [^14 C]serotonin secretion in human platelet preparations. Blood was taken by venipuncture from normal human volunteers who were reported to be free of medication for at least 10 days before blood drawing. Venous blood samples were mixed with acid-citrate dextrose solution (9:1) and centrifuged at 120×g for 15 minutes at room temperature to obtain platelet-rich plasma, PRP, (Huzoor-Akbar et al., Biochem. Pharmacol., 30: 2013-2020, 1981). The PRP was transferred to polypropylene tubes and stored under an atmosphere of 8% CO2. The remaining blood was centrifuged at 1000×g for 10 minutes to obtain platelet-poor plasma. […] Platelet counts varied between 280,000 to 320,000 per cmm or were adjusted to 300,000 per cmm for the aggregation and secretion experiments. All studies were conducted within 2 hours after PRP recovery.
(§2) For aggregation studies, 0.5 ml of PRP was incubated with drug or vehicle (1-5 μl) for 1 minute at 37° C. before the initiation of aggregation with inducers. […] In all experiments, the minimum concentration of inducer (adenosine diphosphate ADP; epinephrine, E; 15S-hydroxy-11α,9α-epoxymethanoprosta-5Z,13E-dienoic acid, U46619; collagen; and arachidonic acid, AA) which caused maximal irreversible aggregation within each PRP preparation was used. Aggregation was monitored for 4 to 6 minutes after the addition of an inducer and data were presented as a percentage inhibition of either slope or maximal light transmittance changes in the presence of varying drug concentrations.

The subject of data set [2] is human platelets (U46619-induced serotonin secretion). Nature of the data set: inhibition of U46619-induced serotonin secretion in presence of aspirin, human platelet-rich plasma. Type of data set: cell-based. The settings on record: U46619 0.5-1.5 μM, aspirin 1 mM. As to the method: as §1, §2
(§3) Secretion data were calculated as the net increase of serotonin released into the supernatant by each inducer and expressed as a percentage of the total radioactivity in platelets Mayo et al., Biochem. Pharmacol., 30: 2237-2241, 1981. The effect of compounds on serotonin release was expressed as the percentage of inhibition of the maximum release by each inducer and plotted against the log molar concentrations of each agent.

The test system of data set [3] is human platelets (collagen-induced aggregation). Kind of data set: inhibition of collagen-induced platelet aggregation, human platelet-rich plasma. The format is cell-based. The settings on record: collagen 10-100 μg/ml. The method, then: as §1, §2
Data set [4] relates to human platelets (collagen-induced serotonin secretion). Nature of the data set: inhibition of collagen-induced serotonin secretion, human platelet-rich plasma. The format is cell-based. The settings on record: collagen 10-100 μg/ml. The method, then: as §1, §2, §3
In data set [5] the test system is human platelets (ADP-induced aggregation). Nature of the data set: inhibition of the secondary phase of ADP-induced platelet aggregation, human platelet-rich plasma. Type of data set: cell-based. The settings on record: ADP 1-3 μM. As to the method: as §1, §2
For data set [6], the system named is human platelets (ADP-induced serotonin secretion). Kind of data set: inhibition of ADP-induced serotonin secretion, human platelet-rich plasma. The settings on record: ADP 1-3 μM. The format is cell-based. As to the method: as §1, §2, §3
The subject of data set [7] is human platelets (epinephrine-induced aggregation). Kind of data set: inhibition of the secondary phase of epinephrine-induced platelet aggregation, human platelet-rich plasma. Type of data set: cell-based. The settings on record: epinephrine 1-10 μM. The method, then:
as §1, §2

Data set [8] relates to human platelets (epinephrine-induced serotonin secretion). Nature of the data set: inhibition of epinephrine-induced serotonin secretion, human platelet-rich plasma. The settings on record: epinephrine 1-10 μM. The format is cell-based. As to the method:
as §1, §2, §3

The subject of a further data set is human platelets. Kind of data set: human platelet aggregation and serotonin release, inducers taken together. The format is cell-based. The settings on record: for inhibition of aggregation and serotonin release: each inducer. As to the method: as §1, §2, §3
Data set [9] can be described thus: phenol acidities (pKa) determined spectrophotometrically. Type of data set: physicochemical. The settings on record: for pKa: phenol, tris(hydroxymethyl)aminomethane buffer, UV; for times more acidic than 1: relative to trimetoquinol 1. As to the method:
Phenol acidities (pKa) were determined spectrophotometrically, as described by Albert et al., "The determination of Ionization Constants" 3rd Ed., Chapman and Hall, London and New York, 1984, by measuring the absorption as a function of pH in tris(hydroxymethyl)aminomethane buffer. Since the catechols tended to oxidize in basic media the buffers were degassed and flushed with argon prior to use.

Where [10] appears, read: read-out: IC50 platelet aggregation.
The mark [11] stands for this setting: read-out: pIC50 platelet aggregation (converted).
Setting [12] is: read-out: IC50 serotonin secretion.
[13] abbreviates: read-out: pIC50 serotonin secretion (converted).
The mark [14] stands for this setting: read-out: IC50 platelet aggregation (secondary phase).
[15] abbreviates: read-out: pIC50 platelet aggregation (secondary phase) (converted).

Each structure is given as a SMILES string. Read-outs that look alike come from different tables or passages of the source.

With `COc1cc(CC2NCCc3c2cc(O)c(O)c3F)cc(OC)c1OC` (stereo not drawn) [Compound 5-F-TMQ, 5-fluoro-trimetoquinol], the IC50 in data set [1] (setting [10]) was 7.4 µM; in [1] (setting [11]) it was 7.41 µM; in data set [2] (setting [12]) it was 6.9 µM; in data set [2] (setting [13]), 6.92 µM; in data set [3] (setting [10]) it was 51.3 µM; in data set [3] (setting [11]), 51.3 µM. Also, the IC50 in data set [4] (setting [12]) was 13.2 µM; in data set [4] (setting [13]), 13.2 µM; in [5] (setting [14]) it was 15.1 µM; in data set [5] (setting [15]), 15.1 µM; in [6] (setting [12]) it was 17 µM; in data set [6] (setting [13]) it was 17 µM. The IC50 in data set [7] (setting [14]) is 14.8 µM; in data set [7] (setting [15]) it was 14.8 µM; in data set [8] (setting [12]), 7.4 µM; in data set [8] (setting [13]), 7.59 µM. For the same molecule, in the data set on human platelets, the “inhibition of aggregation and serotonin release” value is “inhibitors of aggregation and serotonin release by each inducer”. Moreover, the pKa (commonly the negative logarithm of the acid dissociation constant) in [9] came out at 8.11 ± 0.15. Further, the “times more acidic than 1” value in data set [9] is reported as 4 times.

Turning to `COc1cc(CC2NCCc3cc(O)c(O)c(F)c32)cc(OC)c1OC` (stereo not drawn) [Compound 8-F-TMQ, 8-fluoro-trimetoquinol], the IC50 in data set [1] (setting [10]) was 3.9 µM; in data set [1] (setting [11]) it was 3.89 µM; in [2] (setting [12]) it was 4.4 µM; in data set [2] (setting [13]), 4.37 µM; in data set [3] (setting [10]), 9.8 µM; in data set [3] (setting [11]), 9.77 µM. The IC50 was 7.6 µM in data set [4] (setting [12]); 7.59 µM in data set [4] (setting [13]); 6.5 µM in [5] (setting [14]); 6.46 µM in data set [5] (setting [15]); 6.6 µM in data set [6] (setting [12]); 6.61 µM in data set [6] (setting [13]). For the same molecule, the IC50 in data set [7] (setting [14]) was 11 µM; in [7] (setting [15]), 11 µM; in data set [8] (setting [12]) it was 3.5 µM; in [8] (setting [13]), 3.47 µM. In the data set on human platelets, the “inhibition of aggregation and serotonin release” value is “inhibitors of aggregation and serotonin release by each inducer”. Besides, the “potency relative to 2 as an inhibitor of human platelet activation” value in the data set with human platelets (relative to analog 2) was “about 2 fold”. Moreover, in [9], the pKa is 7.86 ± 0.15. Further, the “times more acidic than 1” value in data set [9] is 8 times.
